Tests used:
morningglory [1] = assay: Test B pre-/postemergence herbicide test; type: in vivo, Ipomoea coccinea
How it was run: (§1)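 Species tested were Echinochloa crus-galli, Ipomoea coccinea, Xanthium strumarium and Oryza sativa, treated both before emergence and at the 1- to 4-leaf stage; rice and barnyardgrass were also tested under flooding at 2 leaves. Greenhouse incubation lasted 13–15 days before visual 0–100 scoring.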

wheat = assay: Test B postemergence herbicide test; type: in vivo, Triticum aestivum; parameters: key to Wheat plant response rating: 0 = no effect, 100 = complete control; conditions: scale 0 (no effect) to 100 (complete control); for Plant response rating, Wheat: Postemergence, 500 g ai/ha, visual rating after 13 to 15 days
How it was run: (§2)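 Plants grow to 1- to 4-leaf stage (2–18 cm) for postemergence spraying, or to 2-leaf stage for the paddy test. Formulated compound is applied. Greenhouse holding lasts 13–15 days. Response is scored visually relative to controls, 0 no effect to 100 complete control; a dash means no result.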

velvetleaf [2] = assay: Test A pre-/postemergence herbicide test; type: in vivo, Abutilon theophrasti
How it was run: (§3)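 Visual injury scores on a 0–100 scale (100 = complete control) taken about ten days post-treatment in greenhouse against untreated controls; dash means no result. Treatments: preemergence soil spray and postemergence spray to runoff on one- to two-leaf plants 2 to 10 cm tall, surfactant-containing formulation.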

pigweed = assay: Test B pre-/postemergence herbicide test; type: in vivo, Amaranthus retroflexus
How it was run: (§4)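 Formulation: non-phytotoxic solvent mix with surfactant. Timing: preemergence on seed and postemergence on 2–18 cm plants, applied concurrently. Readout after 13–15 d greenhouse: visual 0–100 control rating against controls.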

giant foxtail [3] = assay: Test A pre-/postemergence herbicide test; type: in vivo, Setaria faberi
How it was run: as §3

blackgrass = assay: Test B postemergence herbicide test; type: in vivo, Alopecurus myosuroides; conditions: scale 0 (no effect) to 100 (complete control); for Blackgrass plant response rating: 125 g ai/ha; for Plant response rating, Blackgrass: 500 g ai/ha, visual rating after 13 to 15 days
How it was run: as §2

ducksalad = assay: Test B flooded paddy test; type: in vivo, Heteranthera limosa; conditions: 1000 g ai/ha, visual rating, scale 0 to 100 (0 no effect, 100 complete control), 13 to 15 days
How it was run: as §2

rice = assay: Test B flooded paddy test; type: in vivo, Oryza sativa; conditions: 1000 g ai/ha, visual rating, scale 0 to 100 (0 no effect, 100 complete control), 13 to 15 days
How it was run: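 Scale 0–100: zero equals no visible effect, 100 complete control, judged by eye relative to controls. Timing: 13 to 15 days in greenhouse post-treatment. Growth stage at spraying: two leaves (paddy) or one to four leaves, 2–18 cm (postemergence).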

[4] = tested on: small flower umbrella sedge; assay: Test B flooded paddy test; type: in vivo, Cyperus difformis; conditions: 1000 g ai/ha, visual rating, scale 0 to 100 (0 no effect, 100 complete control), 13 to 15 days
How it was run: as §2

Surinam grass = assay: Test B pre-/postemergence herbicide test; type: in vivo, Urochloa decumbens
How it was run: as §4

barnyardgrass [5] = assay: Test B flooded paddy test; type: in vivo, Echinochloa crus-galli; conditions: 1000 g ai/ha, visual rating, scale 0 to 100 (0 no effect, 100 complete control), 13 to 15 days
How it was run: as §2

velvetleaf [6] = assay: Test B pre-/postemergence herbicide test; type: in vivo, Abutilon theophrasti
How it was run: as §4

barnyardgrass [7] = assay: Test A pre-/postemergence herbicide test; type: in vivo, Echinochloa crus-galli
How it was run: as §3

lambsquarters = assay: Test B pre-/postemergence herbicide test; type: in vivo, Chenopodium album
How it was run: as §4

morningglory [8] = assay: Test A pre-/postemergence herbicide test; type: in vivo, Ipomoea spp.
How it was run: as §3

wild oat = assay: Test B postemergence herbicide test; type: in vivo, Avena fatua; conditions: scale 0 (no effect) to 100 (complete control); for Oat, Wild plant response rating: 125 g ai/ha; for Plant response rating, Oat, Wild: 500 g ai/ha, visual rating after 13 to 15 days
How it was run: as §2

large crabgrass [9] = assay: Test B pre-/postemergence herbicide test; type: in vivo, Digitaria sanguinalis
How it was run: as §4

barnyardgrass [10] = assay: Test B pre-/postemergence herbicide test; type: in vivo, Echinochloa crus-galli
How it was run: as §1

large crabgrass [11] = assay: Test A pre-/postemergence herbicide test; type: in vivo, Digitaria sanguinalis
How it was run: as §3

corn = assay: Test B pre-/postemergence herbicide test; type: in vivo, Zea mays
How it was run: as §4

cocklebur = assay: Test B pre-/postemergence herbicide test; type: in vivo, Xanthium strumarium
How it was run: as §1

giant foxtail [12] = assay: Test B pre-/postemergence herbicide test; type: in vivo, Setaria faberi
How it was run: as §4

redroot pigweed = assay: Test A pre-/postemergence herbicide test; type: in vivo, Amaranthus retroflexus
How it was run: as §3

[13] = Preemergence, 500 g ai/ha, scale 0 to 100
[14] = preemergence, 125 g ai/ha, 0 to 100 scale, 0 is no effect, 100 is complete control
[15] = Postemergence, 500 g ai/ha, 0 to 100 scale, 0 no effect, 100 complete control
[16] = Postemergence, 2000 g ai/ha, 0 to 100 scale, 0 no effect, 100 complete control
[17] = Preemergence, 500 g ai/ha, visual rating, 0 to 100 scale (0 no effect, 100 complete control)
[18] = Preemergence, 2000 g ai/ha, 0 to 100 scale, 0 no effect, 100 complete control
[19] = Postemergence, 500 g ai/ha, visual rating after 13 to 15 days, scale 0 (no effect) to 100 (complete control)
[20] = Postemergence, 125 g ai/ha, scale 0 (no effect) to 100 (complete control)
[21] = 500 g ai/ha, visual rating 0-100, 0 no effect, 100 complete control, preemergence
[22] = postemergence, 125 g ai/ha, visual rating, scale 0 (no effect) to 100 (complete control)
[23] = Preemergence, 2000 g ai/ha, visual rating, 0 to 100 scale (0 no effect, 100 complete control)

## CCN(CC)C(=O)c1cccc(NC(=O)c2cc(C(C)(C)C)nn2CCF)c1 [Compound 36]
Morningglory [1]; [13]
  Morningglory plant response rating: 10
Morningglory [1]; [14]
  Plant response rating, Morningglory: 10
wheat
  Plant response rating, Wheat: 30
Velvetleaf [2]; [15]
  Plant response rating, Velvetleaf: 15
Velvetleaf [2]; [16]
  Plant response rating, Velvetleaf: 20
Velvetleaf [2]; [17]
  Velvetleaf plant response rating: 20
Velvetleaf [2]; [18]
  Velvetleaf plant response rating: 90
pigweed; [19]
  Plant response rating, Pigweed: 90
pigweed; [13]
  Pigweed plant response rating: 100
pigweed; [14]
  Plant response rating, Pigweed: 90
Giant foxtail [3]; [15]
  Plant response rating, Foxtail, Giant: 20
Giant foxtail [3]; [16]
  Plant response rating, Foxtail, Giant: 35
Giant foxtail [3]; [17]
  Foxtail, Giant plant response rating: 5
Giant foxtail [3]; [18]
  Foxtail, Giant plant response rating: 85
blackgrass; Postemergence
  Blackgrass plant response rating: 10
  Plant response rating, Blackgrass: 20
ducksalad
  Ducksalad plant response rating: 90
rice
  Rice plant response rating: 40
[4]
  Sedge, Umbrella plant response rating: 60
Surinam grass; [19]
  Plant response rating, Surinam Grass: 10
Surinam grass; [13]
  Surinam Grass plant response rating: 50
Surinam grass; [14]
  Plant response rating, Surinam Grass: 10
Barnyardgrass [5]
  Barnyardgrass plant response rating: 70
Velvetleaf [6]; [19]
  Plant response rating, Velvetleaf: 40
Velvetleaf [6]; [13]
  Velvetleaf plant response rating: 50
Velvetleaf [6]; [14]
  Plant response rating, Velvetleaf: 20
Barnyardgrass [7]; [15]
  Plant response rating, Barnyardgrass: 35
Barnyardgrass [7]; [16]
  Plant response rating, Barnyardgrass: 80
Barnyardgrass [7]; [17]
  Barnyardgrass plant response rating: 45
Barnyardgrass [7]; [18]
  Barnyardgrass plant response rating: 75
lambsquarters; [20]
  Lambsquarters plant response rating: 80
lambsquarters; [19]
  Plant response rating, Lambsquarters: 90
lambsquarters; [13]
  Lambsquarters plant response rating: 100
lambsquarters; [14]
  Plant response rating, Lambsquarters: 80
Morningglory [8]; [15]
  Plant response rating, Morningglory: 10
Morningglory [8]; [16]
  Plant response rating, Morningglory: 10
Morningglory [8]; [17]
  Morningglory plant response rating: 20
Morningglory [8]; [18]
  Morningglory plant response rating: 70
Wild oat; Postemergence
  Oat, Wild plant response rating: 20
  Plant response rating, Oat, Wild: 20
Large crabgrass [9]; [20]
  Crabgrass, Large plant response rating: 20
Large crabgrass [9]; [19]
  Plant response rating, Crabgrass, Large: 20
Large crabgrass [9]; [13]
  Crabgrass, Large plant response rating: 20
Barnyardgrass [10]; [20]
  Barnyardgrass plant response rating: 20
Barnyardgrass [10]; [19]
  Plant response rating, Barnyardgrass: 20
Barnyardgrass [10]; [13]
  Barnyardgrass plant response rating: 80
Large crabgrass [11]; [15]
  Plant response rating, Crabgrass, Large: 10
Large crabgrass [11]; [16]
  Plant response rating, Crabgrass, Large: 10
Large crabgrass [11]; [17]
  Crabgrass, Large plant response rating: 10
Large crabgrass [11]; [18]
  Crabgrass, Large plant response rating: 70
corn; [13]
  Corn plant response rating: 10
cocklebur; [20]
  Cocklebur plant response rating: 30
cocklebur; [19]
  Plant response rating, Cocklebur: 50
cocklebur; [13]
  Cocklebur plant response rating: 0
Giant foxtail [12]; [20]
  Foxtail, Giant plant response rating: 20
Giant foxtail [12]; [19]
  Plant response rating, Foxtail, Giant: 30
Giant foxtail [12]; [13]
  Foxtail, Giant plant response rating: 30
Giant foxtail [12]; [14]
  Plant response rating, Foxtail, Giant: 0
Redroot pigweed; [15]
  Plant response rating, Pigweed: 80
Redroot pigweed; [16]
  Plant response rating, Pigweed: 85
Redroot pigweed; [17]
  Pigweed plant response rating: 95
Redroot pigweed; [18]
  Pigweed plant response rating: 100

## CC(=NO)c1cccc(NC(=O)c2cc(C(C)(C)C)nn2C)c1 [Compound 107]
Morningglory [1]; [21]
  Plant response rating, Morningglory: 10
Morningglory [1]; [19]
  Plant response rating, Morningglory: 0
Morningglory [1]; [22]
  Morningglory plant response rating: 0
Morningglory [1]; [14]
  Plant response rating, Morningglory: 0
wheat
  Plant response rating, Wheat: 0
wheat; postemergence, 125 g ai/ha, visual rating
  Wheat plant response rating: 0
Velvetleaf [2]; [15]
  Velvetleaf plant response rating: 0
Velvetleaf [2]; [16]
  Plant response rating, Velvetleaf: 0
Velvetleaf [2]; [17]
  Velvetleaf plant response rating: 0
Velvetleaf [2]; [23]
  Velvetleaf plant response rating: 0
pigweed; [21]
  Plant response rating, Pigweed: 0
pigweed; [19]
  Plant response rating, Pigweed: 10
pigweed; [22]
  Pigweed plant response rating: 0
pigweed; [14]
  Plant response rating, Pigweed: 0
Giant foxtail [3]; [15]
  Foxtail, Giant plant response rating: 20
Giant foxtail [3]; [16]
  Plant response rating, Foxtail, Giant: 35
Giant foxtail [3]; [17]
  Foxtail, Giant plant response rating: 10
Giant foxtail [3]; [23]
  Foxtail, Giant plant response rating: 80
blackgrass; Postemergence
  Plant response rating, Blackgrass: 0
blackgrass; postemergence, visual rating
  Blackgrass plant response rating: 0
ducksalad
  Ducksalad plant response rating: 60
rice
  Rice plant response rating: 0
[4]
  Sedge, Umbrella plant response rating: 60
Surinam grass; [21]
  Plant response rating, Surinam Grass: 10
Surinam grass; [19]
  Plant response rating, Surinam Grass: 10
Surinam grass; [22]
  Surinam Grass plant response rating: 10
Surinam grass; [14]
  Plant response rating, Surinam Grass: 0
Barnyardgrass [5]
  Barnyardgrass plant response rating: 0
Velvetleaf [6]; [21]
  Plant response rating, Velvetleaf: 0
Velvetleaf [6]; [19]
  Plant response rating, Velvetleaf: 0
Velvetleaf [6]; [22]
  Velvetleaf plant response rating: 0
Velvetleaf [6]; [14]
  Plant response rating, Velvetleaf: 0
Barnyardgrass [7]; [15]
  Barnyardgrass plant response rating: 20
Barnyardgrass [7]; [16]
  Plant response rating, Barnyardgrass: 55
Barnyardgrass [7]; [17]
  Barnyardgrass plant response rating: 0
Barnyardgrass [7]; [23]
  Barnyardgrass plant response rating: 35
lambsquarters; [21]
  Plant response rating, Lambsquarters: 30
lambsquarters; [19]
  Plant response rating, Lambsquarters: 20
lambsquarters; [22]
  Lambsquarters plant response rating: 10
lambsquarters; [14]
  Plant response rating, Lambsquarters: 0
Morningglory [8]; [15]
  Morningglory plant response rating: 30
Morningglory [8]; [16]
  Plant response rating, Morningglory: 40
Morningglory [8]; [17]
  Morningglory plant response rating: 95
Morningglory [8]; [23]
  Morningglory plant response rating: 100
Wild oat; Postemergence
  Plant response rating, Oat, Wild: 0
Wild oat; postemergence, visual rating
  Oat, Wild plant response rating: 0
Large crabgrass [9]; [21]
  Plant response rating, Crabgrass, Large: 10
Large crabgrass [9]; [19]
  Plant response rating, Crabgrass, Large: 0
Large crabgrass [9]; [22]
  Crabgrass, Large plant response rating: 0
Large crabgrass [9]; [14]
  Plant response rating, Crabgrass, Large: 0
Barnyardgrass [10]; [21]
  Plant response rating, Barnyardgrass: 0
Barnyardgrass [10]; [19]
  Plant response rating, Barnyardgrass: 0
Barnyardgrass [10]; [22]
  Barnyardgrass plant response rating: 0
Barnyardgrass [10]; [14]
  Plant response rating, Barnyardgrass: 0
Large crabgrass [11]; [15]
  Crabgrass, Large plant response rating: 25
Large crabgrass [11]; [16]
  Plant response rating, Crabgrass, Large: 40
Large crabgrass [11]; [17]
  Crabgrass, Large plant response rating: 65
Large crabgrass [11]; [23]
  Crabgrass, Large plant response rating: 90
corn; [21]
  Plant response rating, Corn: 0
corn; [19]
  Plant response rating, Corn: 0
corn; [22]
  Corn plant response rating: 0
corn; [14]
  Plant response rating, Corn: 0
cocklebur; [21]
  Plant response rating, Cocklebur: 0
cocklebur; [19]
  Plant response rating, Cocklebur: 0
cocklebur; [22]
  Cocklebur plant response rating: 0
cocklebur; [14]
  Plant response rating, Cocklebur: 0
Giant foxtail [12]; [21]
  Plant response rating, Foxtail, Giant: 0
Giant foxtail [12]; [19]
  Plant response rating, Foxtail, Giant: 0
Giant foxtail [12]; [22]
  Foxtail, Giant plant response rating: 0
Giant foxtail [12]; [14]
  Plant response rating, Foxtail, Giant: 0
Redroot pigweed; [15]
  Pigweed plant response rating: 95
Redroot pigweed; [16]
  Plant response rating, Pigweed: 100
Redroot pigweed; [17]
  Pigweed plant response rating: 35
Redroot pigweed; [23]
  Pigweed plant response rating: 95

— US20060069132A1, “Azolecarboxamide herbicides” (priority 2004, published 2006)
